Measured values: ChEMBL document CHEMBL5212743, “Selectivity Literature for EUbOPEN Chemogenomics Library wave 3” (2023)

How the values were obtained:
[1] = biological target: Bromodomain-containing protein 1 (Homo sapiens, UniProt O95696); test: Selectivity interaction (AlphaScreen) EUB0000323b BRD1
[2] = biological target: 5-hydroxytryptamine receptor 6 (Homo sapiens) (UniProt P50406); conditions: at 10 µM
[3] = biological target: T1, Adenosine receptor A1 (Homo sapiens) (UniProt P30542); conditions: at 10 µM
T1 sequence (whole entry): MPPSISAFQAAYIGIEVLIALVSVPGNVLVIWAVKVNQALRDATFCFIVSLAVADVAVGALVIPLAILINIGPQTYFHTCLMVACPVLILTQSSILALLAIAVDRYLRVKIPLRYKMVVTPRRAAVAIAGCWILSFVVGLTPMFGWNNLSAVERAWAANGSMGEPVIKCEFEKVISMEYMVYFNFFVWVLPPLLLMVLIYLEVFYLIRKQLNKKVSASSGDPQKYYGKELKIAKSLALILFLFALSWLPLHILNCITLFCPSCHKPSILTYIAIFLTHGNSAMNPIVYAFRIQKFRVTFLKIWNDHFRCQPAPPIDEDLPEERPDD

[4] = biological target: T2, Adenosine receptor A3 (Homo sapiens) (UniProt P0DMS8); conditions: at 10 µM
T2 sequence (whole entry): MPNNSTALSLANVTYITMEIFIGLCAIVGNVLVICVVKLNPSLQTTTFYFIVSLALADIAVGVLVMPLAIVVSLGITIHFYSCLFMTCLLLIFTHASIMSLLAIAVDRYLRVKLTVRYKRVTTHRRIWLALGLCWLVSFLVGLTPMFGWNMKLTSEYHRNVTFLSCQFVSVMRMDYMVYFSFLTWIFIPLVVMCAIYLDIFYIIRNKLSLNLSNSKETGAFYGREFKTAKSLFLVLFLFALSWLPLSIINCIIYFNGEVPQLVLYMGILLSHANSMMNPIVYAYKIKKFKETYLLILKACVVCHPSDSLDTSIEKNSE

[5] = biological target: Bromodomain-containing protein 1 (Homo sapiens) (UniProt O95696)
[6] = biological target: Bromodomain-containing protein 4 (Homo sapiens, UniProt O60885)
[7] = biological target: Peregrin (Homo sapiens) (UniProt P55201)
[8] = biological target: Bromodomain and PHD finger-containing protein 3 (Homo sapiens) (UniProt Q9ULD4)
[9] = biological target: Muscarinic acetylcholine receptor M2 (Homo sapiens, UniProt P08172); test: Selectivity interaction (PSP Principial panel 20118+ (panel of GPCRs, transporter, and ion channels)) EUB0000283b CHRM2
[10] = biological target: Histamine H3 receptor (Homo sapiens, UniProt Q9Y5N1); test: Selectivity interaction (PSP Principial panel 20118+ (panel of GPCRs, transporter, and ion channels)) EUB0000283b HRH3
[11] = biological target: Serine/threonine-protein kinase pim-1 (Homo sapiens, UniProt P11309); test: Selectivity interaction (PSP kinase safety panel (Eurofins)) EUB0000283b PIM1
[12] = biological target: Tribbles homolog 2 (Homo sapiens, UniProt Q92519); test: Selectivity interaction (PSP kinase safety panel (Eurofins)) EUB0000283b TRIB2
[13] = biological target: Sodium-dependent noradrenaline transporter (Homo sapiens, UniProt P23975); test: Selectivity interaction (PSP Principial panel 20118+ (panel of GPCRs, transporter, and ion channels)) EUB0000283b SLC6A2
[14] = biological target: T3, YEATS domain-containing protein 2 (Homo sapiens, UniProt Q9ULM3); test: Selectivity interaction (Bromodomain panel (TR-FRET assay)) EUB0000283b YEATS2
T3 sequence (Q9ULM3 whole entry): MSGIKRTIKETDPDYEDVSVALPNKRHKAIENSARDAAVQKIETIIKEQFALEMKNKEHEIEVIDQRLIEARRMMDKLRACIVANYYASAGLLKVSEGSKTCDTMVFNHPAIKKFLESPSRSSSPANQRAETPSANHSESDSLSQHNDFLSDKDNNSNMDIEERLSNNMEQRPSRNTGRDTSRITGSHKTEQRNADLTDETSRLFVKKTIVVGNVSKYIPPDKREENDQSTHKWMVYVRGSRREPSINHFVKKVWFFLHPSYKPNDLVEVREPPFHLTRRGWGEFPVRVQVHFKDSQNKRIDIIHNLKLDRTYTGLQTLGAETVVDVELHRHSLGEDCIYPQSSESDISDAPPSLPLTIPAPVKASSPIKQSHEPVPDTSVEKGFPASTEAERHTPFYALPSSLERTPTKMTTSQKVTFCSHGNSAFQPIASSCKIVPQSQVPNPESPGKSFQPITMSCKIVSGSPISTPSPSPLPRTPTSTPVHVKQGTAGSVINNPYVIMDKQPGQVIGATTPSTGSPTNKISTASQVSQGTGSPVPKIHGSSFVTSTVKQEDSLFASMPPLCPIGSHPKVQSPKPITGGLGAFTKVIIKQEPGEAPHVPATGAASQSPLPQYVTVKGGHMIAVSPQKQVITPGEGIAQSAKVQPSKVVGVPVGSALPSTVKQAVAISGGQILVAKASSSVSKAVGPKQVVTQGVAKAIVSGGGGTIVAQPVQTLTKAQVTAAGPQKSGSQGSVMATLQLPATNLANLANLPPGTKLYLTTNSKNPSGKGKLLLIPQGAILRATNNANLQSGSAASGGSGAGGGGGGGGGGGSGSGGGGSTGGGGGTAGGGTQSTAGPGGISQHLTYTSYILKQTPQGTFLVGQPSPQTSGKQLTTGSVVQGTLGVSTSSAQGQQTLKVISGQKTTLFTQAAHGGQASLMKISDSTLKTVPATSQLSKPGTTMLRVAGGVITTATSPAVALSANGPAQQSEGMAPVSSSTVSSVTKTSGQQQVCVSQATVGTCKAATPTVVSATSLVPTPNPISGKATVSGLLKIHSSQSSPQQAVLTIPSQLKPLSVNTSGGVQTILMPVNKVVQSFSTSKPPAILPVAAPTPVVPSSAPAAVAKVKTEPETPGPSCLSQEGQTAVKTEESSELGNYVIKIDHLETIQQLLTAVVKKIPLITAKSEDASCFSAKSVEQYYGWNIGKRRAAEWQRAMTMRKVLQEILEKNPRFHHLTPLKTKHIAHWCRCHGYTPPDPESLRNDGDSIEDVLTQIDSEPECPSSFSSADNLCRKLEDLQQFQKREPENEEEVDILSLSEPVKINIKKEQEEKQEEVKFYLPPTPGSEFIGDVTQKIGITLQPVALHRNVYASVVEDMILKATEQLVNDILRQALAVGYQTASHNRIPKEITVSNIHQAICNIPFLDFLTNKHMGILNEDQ

[15] = biological target: T4, YEATS domain-containing protein 4 (Homo sapiens, UniProt O95619); test: Selectivity interaction (Bromodomain panel (TR-FRET assay)) EUB0000283b YEATS4
[16] = biological target: Acetylcholinesterase (Homo sapiens, UniProt P22303); test: Selectivity interaction (PSP Principial panel 20118+ (panel of GPCRs, transporter, and ion channels)) EUB0000283b ACHE
[17] = biological target: T5, Protein ENL (Homo sapiens, UniProt Q03111); test: Selectivity interaction (BioLayer Interferometry assay (BLI)) EUB0000283b MLLT1
[18] = biological target: T5, Protein ENL; test: Selectivity interaction (ITC) EUB0000283b MLLT1
[19] = biological target: Chromatin remodeling regulator CECR2 (Homo sapiens, UniProt Q9BXF3); test: Selectivity interaction (Bromodomain panel (TR-FRET assay)) EUB0000283b CECR2
[20] = biological target: Vascular endothelial growth factor receptor 2 (Homo sapiens, UniProt P35968); test: Selectivity interaction (Kinase panel (literature or Upstate/Millipore)) EUB0000665a KDR
[21] = biological target: 5-hydroxytryptamine receptor 2B (Homo sapiens, UniProt P41595); test: Selectivity interaction (CEREP panel (cellular receptors and 30 other enzymes)) EUB0000199c HTR2B
[22] = biological target: T6, Alpha-1A adrenergic receptor (Homo sapiens, UniProt P35348); test: Selectivity interaction (CEREP panel (cellular receptors and 30 other enzymes)) EUB0000199c ADRA1A
T6 sequence (P35348 whole entry): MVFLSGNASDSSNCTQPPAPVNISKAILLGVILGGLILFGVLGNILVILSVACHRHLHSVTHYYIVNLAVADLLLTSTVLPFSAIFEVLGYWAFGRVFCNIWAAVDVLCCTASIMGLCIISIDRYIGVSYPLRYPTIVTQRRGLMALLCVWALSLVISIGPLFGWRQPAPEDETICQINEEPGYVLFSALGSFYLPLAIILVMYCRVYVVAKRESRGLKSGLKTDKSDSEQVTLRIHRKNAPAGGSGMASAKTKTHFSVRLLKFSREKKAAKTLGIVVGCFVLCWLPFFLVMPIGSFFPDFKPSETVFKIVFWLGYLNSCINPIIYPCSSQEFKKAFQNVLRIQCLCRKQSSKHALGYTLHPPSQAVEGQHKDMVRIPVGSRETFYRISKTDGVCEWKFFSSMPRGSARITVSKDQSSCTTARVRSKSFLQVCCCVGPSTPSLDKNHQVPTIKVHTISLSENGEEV

[23] = biological target: T7, Alpha-1B adrenergic receptor (Homo sapiens, UniProt P35368); test: Selectivity interaction (CEREP panel (cellular receptors and 30 other enzymes)) EUB0000199c ADRA1B
T7 sequence (P35368 whole entry): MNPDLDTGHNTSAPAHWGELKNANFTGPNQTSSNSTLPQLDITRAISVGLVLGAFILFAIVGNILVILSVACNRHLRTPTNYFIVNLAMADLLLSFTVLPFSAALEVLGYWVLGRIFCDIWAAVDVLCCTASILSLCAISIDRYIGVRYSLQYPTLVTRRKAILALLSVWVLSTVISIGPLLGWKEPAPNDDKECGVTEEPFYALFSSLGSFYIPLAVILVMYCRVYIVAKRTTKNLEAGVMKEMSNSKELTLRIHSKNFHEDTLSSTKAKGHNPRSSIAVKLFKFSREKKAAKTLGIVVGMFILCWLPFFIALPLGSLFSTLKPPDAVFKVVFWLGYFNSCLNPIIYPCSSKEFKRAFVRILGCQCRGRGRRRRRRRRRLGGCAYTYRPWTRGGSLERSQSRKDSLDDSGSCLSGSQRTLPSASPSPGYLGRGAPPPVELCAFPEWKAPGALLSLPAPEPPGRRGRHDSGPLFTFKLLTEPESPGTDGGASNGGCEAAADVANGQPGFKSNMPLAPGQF

[24] = biological target: Kappa-type opioid receptor (Homo sapiens, UniProt P41145); test: Selectivity interaction (CEREP panel (cellular receptors and 30 other enzymes)) EUB0000199c OPRK1
[25] = biological target: SWI/SNF-related matrix-associated actin-dependent regulator of chromatin subfamily A member 2 (Homo sapiens) (UniProt P51531); test: Selectivity interaction (Bromodomain panel (DSF assay)) EUB0000199c SMARCA2
[26] = biological target: T3, YEATS domain-containing protein 2; test: Selectivity interaction (Enzyme panel (PDEs, ion channels, and GPCRS, HTRF assay)) EUB0000731a YEATS2
[27] = biological target: T4, YEATS domain-containing protein 4; test: Selectivity interaction (Enzyme panel (PDEs, ion channels, and GPCRS, HTRF assay)) EUB0000731a YEATS4
[28] = biological target: Protein ENL (Homo sapiens) (UniProt Q03111); test: Selectivity interaction (DSF assay) EUB0000731a MLLT1
[29] = biological target: T8, Protein AF-9 (Homo sapiens, UniProt P42568)
[30] = biological target: T8, Protein AF-9; remark: listed apart in the source
[31] = biological target: Protein AF-9 (Homo sapiens) (UniProt P42568)
[32] = biological target: T3, YEATS domain-containing protein 2; test: Selectivity interaction (HTRF-based inhibition assay) EUB0000732a YEATS2
[33] = biological target: T4, YEATS domain-containing protein 4; test: Selectivity interaction (HTRF-based inhibition assay) EUB0000732a YEATS4

T4 sequence (O95619 whole entry, the tested form may be a part): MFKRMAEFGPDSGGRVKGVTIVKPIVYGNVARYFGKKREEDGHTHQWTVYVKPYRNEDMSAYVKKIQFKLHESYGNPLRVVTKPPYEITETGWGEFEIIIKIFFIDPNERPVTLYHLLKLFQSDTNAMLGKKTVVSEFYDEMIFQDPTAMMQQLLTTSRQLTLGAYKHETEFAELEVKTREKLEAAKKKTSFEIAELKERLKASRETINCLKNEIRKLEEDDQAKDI
T5 sequence (Q03111 whole entry): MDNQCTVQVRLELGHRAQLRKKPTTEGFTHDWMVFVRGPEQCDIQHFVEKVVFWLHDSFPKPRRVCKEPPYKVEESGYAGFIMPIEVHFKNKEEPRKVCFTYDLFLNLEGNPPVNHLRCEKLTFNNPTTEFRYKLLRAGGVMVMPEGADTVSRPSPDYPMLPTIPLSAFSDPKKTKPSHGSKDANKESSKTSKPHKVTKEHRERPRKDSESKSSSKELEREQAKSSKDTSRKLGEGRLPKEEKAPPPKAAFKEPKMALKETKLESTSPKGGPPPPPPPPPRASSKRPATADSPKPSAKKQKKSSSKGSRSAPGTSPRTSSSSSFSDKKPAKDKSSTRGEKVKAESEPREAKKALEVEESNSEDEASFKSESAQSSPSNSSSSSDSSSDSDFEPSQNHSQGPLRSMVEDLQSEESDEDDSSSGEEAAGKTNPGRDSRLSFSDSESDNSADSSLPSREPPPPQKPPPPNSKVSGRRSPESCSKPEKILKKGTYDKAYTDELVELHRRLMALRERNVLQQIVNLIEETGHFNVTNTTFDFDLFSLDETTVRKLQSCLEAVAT
T8 sequence (P42568 whole entry): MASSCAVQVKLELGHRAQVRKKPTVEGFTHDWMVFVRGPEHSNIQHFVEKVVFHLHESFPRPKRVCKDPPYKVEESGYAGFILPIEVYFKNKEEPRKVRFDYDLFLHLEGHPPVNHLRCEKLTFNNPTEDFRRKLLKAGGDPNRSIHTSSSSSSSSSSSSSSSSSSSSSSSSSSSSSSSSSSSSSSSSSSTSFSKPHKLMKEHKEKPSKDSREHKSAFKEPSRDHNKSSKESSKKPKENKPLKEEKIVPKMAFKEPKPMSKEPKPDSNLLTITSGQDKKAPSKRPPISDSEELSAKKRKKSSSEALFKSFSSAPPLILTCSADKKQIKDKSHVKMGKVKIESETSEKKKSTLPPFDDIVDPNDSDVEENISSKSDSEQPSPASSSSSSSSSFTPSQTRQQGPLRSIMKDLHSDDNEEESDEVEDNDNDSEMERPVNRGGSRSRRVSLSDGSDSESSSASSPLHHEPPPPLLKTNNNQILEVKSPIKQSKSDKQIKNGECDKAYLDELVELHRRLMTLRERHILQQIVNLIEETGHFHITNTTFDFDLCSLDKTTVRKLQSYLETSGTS
5-hydroxytryptamine receptor 2B, sequence (P41595 whole entry): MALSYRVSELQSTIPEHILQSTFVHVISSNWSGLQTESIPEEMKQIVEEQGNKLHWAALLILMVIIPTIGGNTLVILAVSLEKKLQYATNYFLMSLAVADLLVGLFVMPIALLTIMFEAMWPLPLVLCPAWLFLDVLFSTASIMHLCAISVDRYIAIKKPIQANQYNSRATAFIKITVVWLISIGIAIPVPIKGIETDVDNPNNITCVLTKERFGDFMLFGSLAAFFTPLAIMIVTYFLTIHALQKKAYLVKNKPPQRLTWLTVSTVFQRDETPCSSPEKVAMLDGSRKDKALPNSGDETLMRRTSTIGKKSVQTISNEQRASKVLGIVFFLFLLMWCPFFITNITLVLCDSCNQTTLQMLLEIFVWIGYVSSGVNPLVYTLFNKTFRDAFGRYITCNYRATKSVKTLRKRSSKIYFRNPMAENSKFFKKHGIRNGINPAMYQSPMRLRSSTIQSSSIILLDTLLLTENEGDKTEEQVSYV
Protein ENL (Homo sapiens), sequence (Q03111 whole entry): as the sequence (Q03111 whole entry) above
Kappa-type opioid receptor, sequence (P41145 whole entry): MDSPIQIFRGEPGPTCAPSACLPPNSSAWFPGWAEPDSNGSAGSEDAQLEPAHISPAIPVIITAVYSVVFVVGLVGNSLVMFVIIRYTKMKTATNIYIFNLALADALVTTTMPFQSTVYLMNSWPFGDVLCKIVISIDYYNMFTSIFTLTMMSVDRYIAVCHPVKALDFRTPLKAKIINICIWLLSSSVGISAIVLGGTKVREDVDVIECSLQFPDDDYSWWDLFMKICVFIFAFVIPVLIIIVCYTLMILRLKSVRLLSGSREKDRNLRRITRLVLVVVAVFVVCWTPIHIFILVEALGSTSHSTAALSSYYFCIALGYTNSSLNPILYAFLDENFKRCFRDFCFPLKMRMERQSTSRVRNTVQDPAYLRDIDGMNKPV
Acetylcholinesterase, sequence (P22303 whole entry): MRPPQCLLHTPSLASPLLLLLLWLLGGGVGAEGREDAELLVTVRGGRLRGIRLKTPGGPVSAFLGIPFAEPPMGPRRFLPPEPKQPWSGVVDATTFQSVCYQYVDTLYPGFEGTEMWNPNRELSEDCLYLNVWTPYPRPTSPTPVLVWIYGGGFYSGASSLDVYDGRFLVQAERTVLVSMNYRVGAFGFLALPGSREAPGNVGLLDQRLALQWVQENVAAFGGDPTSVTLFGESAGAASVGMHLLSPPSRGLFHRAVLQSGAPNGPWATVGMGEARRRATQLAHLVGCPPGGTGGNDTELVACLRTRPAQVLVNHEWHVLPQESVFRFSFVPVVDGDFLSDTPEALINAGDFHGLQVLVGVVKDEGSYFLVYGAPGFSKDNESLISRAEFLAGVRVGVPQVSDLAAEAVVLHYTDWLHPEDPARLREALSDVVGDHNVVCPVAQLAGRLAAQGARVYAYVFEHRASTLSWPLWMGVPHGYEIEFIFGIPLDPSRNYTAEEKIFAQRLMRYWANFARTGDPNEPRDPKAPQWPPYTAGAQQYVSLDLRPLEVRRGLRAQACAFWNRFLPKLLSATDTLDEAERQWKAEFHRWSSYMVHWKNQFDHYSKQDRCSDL
Protein AF-9 (Homo sapiens), sequence (P42568 whole entry, the tested form may be a part): as the sequence (P42568 whole entry) above
Bromodomain-containing protein 1, sequence (O95696 whole entry): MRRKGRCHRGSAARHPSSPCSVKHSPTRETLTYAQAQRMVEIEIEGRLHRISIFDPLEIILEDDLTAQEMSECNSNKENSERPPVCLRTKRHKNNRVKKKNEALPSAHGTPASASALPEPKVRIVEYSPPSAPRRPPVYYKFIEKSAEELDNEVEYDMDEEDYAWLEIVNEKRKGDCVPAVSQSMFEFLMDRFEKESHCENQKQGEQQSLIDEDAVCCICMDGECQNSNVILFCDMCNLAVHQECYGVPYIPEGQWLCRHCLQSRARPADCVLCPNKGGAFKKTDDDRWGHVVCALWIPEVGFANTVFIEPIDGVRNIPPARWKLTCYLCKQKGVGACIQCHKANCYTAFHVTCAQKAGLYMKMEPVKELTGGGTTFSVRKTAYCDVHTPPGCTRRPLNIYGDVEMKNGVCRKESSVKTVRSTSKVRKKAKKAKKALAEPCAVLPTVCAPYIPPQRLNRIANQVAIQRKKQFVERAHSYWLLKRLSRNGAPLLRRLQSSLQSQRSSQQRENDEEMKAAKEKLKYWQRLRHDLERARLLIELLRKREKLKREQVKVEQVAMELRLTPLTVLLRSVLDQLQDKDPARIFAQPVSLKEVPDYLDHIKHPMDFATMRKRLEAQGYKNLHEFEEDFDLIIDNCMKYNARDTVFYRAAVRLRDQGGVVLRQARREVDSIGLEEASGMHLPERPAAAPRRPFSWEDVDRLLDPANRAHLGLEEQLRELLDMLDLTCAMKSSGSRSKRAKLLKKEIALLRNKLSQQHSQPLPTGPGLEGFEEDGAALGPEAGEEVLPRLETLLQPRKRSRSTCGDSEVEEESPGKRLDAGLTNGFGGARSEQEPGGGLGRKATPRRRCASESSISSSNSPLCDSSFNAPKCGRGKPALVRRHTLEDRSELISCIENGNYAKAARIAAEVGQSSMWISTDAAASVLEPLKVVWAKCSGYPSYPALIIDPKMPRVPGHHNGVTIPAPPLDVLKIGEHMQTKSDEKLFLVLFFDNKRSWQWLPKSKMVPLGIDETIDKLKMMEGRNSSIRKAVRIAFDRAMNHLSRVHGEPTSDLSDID
Bromodomain-containing protein 1 (Homo sapiens), sequence (O95696 whole entry): as above
Muscarinic acetylcholine receptor M2, sequence (P08172 whole entry): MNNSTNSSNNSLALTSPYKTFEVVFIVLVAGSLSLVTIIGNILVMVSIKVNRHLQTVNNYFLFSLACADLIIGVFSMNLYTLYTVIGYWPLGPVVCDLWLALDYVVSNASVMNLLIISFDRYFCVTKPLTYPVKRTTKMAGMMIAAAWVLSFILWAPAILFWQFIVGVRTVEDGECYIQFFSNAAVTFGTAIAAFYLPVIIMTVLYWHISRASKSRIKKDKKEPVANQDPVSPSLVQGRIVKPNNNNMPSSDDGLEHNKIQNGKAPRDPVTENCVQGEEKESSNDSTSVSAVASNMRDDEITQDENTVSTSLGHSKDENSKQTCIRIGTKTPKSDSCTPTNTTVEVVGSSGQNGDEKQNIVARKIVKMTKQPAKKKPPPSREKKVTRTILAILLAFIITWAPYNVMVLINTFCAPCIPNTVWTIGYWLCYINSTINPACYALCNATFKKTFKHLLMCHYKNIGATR
Tribbles homolog 2, sequence (Q92519 whole entry): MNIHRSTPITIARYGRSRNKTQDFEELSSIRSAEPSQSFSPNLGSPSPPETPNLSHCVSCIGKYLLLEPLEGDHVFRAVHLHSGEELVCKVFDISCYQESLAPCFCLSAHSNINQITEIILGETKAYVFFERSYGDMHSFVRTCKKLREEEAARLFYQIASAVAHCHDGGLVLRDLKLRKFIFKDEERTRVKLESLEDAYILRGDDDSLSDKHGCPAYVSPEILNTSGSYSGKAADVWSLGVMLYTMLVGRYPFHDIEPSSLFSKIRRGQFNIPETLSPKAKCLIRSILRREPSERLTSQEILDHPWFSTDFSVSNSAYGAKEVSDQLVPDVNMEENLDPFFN

With `COc1cc2c(cc1NS(=O)(=O)c1ccc(Br)cc1C)n(C)c(=O)n2C` the IC50 [1] was 2200 nM, the % of inhibition [2] was 54% and the % of inhibition [3] was 82%. For the same compound, the % of inhibition [4] was 53%, the dTm [5] was 3.1 K and the dTm [6] was 2.1 K. It also gave a dTm [7] of 6.5 K and a dTm [8] of 3.3 K.

`C[C@H]1CCCN1Cc1nc2cc(NC(=O)c3ccc4cnccc4c3)ccc2[nH]1` showed an IC50 [9] of 1800 nM, an IC50 [10] of 290 nM and an IC50 [11] of 8600 nM. The IC50 [12] was 3500 nM, the IC50 [13] was 8700 nM and the IC50 [14] was over 20000 nM. The IC50 [15] was over 20000 nM, the IC50 [16] was 250 nM and the Kd [17] was 75 nM. The Kd [18] was 109 nM and the IC50 [19] was over 40000 nM.

In the case of `Cn1cc(-c2[nH]c3cc(NC(=O)[C@H](N)C4CCCCC4)cc4c3c2C=NNC4=O)cn1`, the IC50 [20] is reported as 8 nM.

`O=C(/C=C/N1C[C@H]2C[C@@H]1CN2c1ccccn1)c1ccccc1O` gave an IC50 [21] of 4000 nM, an IC50 [22] of 440 nM and an IC50 [23] of 3600 nM. It also gave an IC50 [24] of 13000 nM and a dTm [25] of 9.2 K.

`CN(C)C(=O)c1ccc(-c2cc(C(=O)N[C@@H]3CCc4ccccc43)no2)cc1O` gave an IC50 [26] of over 40000 nM, an IC50 [27] of over 40000 nM and a dTm [28] of 3.61 K. The Kd [29] was 110 nM, the Kd [30] was 76 nM and the dTm [31] was 5.13 K.

Work on `CN(C)C(=O)c1ccc(-c2cc(C(=O)N(C)C3CCCC3)no2)cc1O` yielded an IC50 [32] of over 30000 nM and an IC50 [33] of over 30000 nM.
